Test results taken from patent publication US10654834B2 (Venenum Biodesign, LLC, priority 2016, dated 2020).

Assays:
Assay type in all cases: cell-based
human TGR5 receptor = molecular target: T1, human TGR5 receptor (Homo sapiens, UniProt Q8TDU6); test: Human TGR5 cAMP production assay (hTGR5-CHO cells, DiscoveRx cAMP XS+ kit); details: luminescent cAMP assay, read-out: Human TGR5 Lum. cAMP Activity (EC50)
T1 construct: host or cells: CHO-K1 (hTGR5-CHO)
T1 sequence (Q8TDU6 1-330): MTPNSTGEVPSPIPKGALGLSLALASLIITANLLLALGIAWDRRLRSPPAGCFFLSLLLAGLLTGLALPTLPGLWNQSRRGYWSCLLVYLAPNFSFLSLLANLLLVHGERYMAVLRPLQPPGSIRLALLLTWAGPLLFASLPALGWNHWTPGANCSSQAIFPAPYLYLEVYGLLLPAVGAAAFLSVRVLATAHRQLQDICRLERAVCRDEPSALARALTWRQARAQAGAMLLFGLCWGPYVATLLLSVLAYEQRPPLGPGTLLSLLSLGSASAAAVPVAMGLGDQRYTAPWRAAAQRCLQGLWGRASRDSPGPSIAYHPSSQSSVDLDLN
How it was run: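 EC50 values come from luminescent enzyme-complementation cAMP detection, read after overnight incubation. Beforehand, hTGR5-expressing CHO-K1 cells with IBMX and anti-cAMP antibody were exposed 1 h at room temperature to serially diluted (half-log) compounds.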

mouse TGR5 receptor [1] = molecular target: T2, mouse TGR5 receptor (Mus musculus, UniProt Q80SS6); test: Mouse TGR5 luminescent cAMP production assay (HEK293-EBNA cells, DiscoveRx cAMP XS+ kit); details: HEK293-EBNA cells overexpressing mouse TGR5, luminescent cAMP assay; read-out: Mouse TGR5 Lum. cAMP Activity (EC50)
T2 construct: host or cells: HEK293-EBNA (293 c18, ATCC CRL10852)
T2 sequence (Q80SS6 1-329): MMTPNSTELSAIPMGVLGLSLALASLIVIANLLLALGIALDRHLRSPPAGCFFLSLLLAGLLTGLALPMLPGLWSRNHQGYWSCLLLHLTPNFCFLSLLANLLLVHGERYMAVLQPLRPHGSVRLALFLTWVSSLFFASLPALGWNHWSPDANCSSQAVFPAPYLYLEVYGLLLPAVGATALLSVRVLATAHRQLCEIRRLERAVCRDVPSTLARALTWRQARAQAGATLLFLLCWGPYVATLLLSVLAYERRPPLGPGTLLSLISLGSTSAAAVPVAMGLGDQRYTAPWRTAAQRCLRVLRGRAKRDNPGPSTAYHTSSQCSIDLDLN
How it was run: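 HEK293-EBNA cells stably expressing mouse TGR5, resuspended in serum-free DMEM with 500 μM IBMX, were premixed 20 min with cAMP antibody, then exposed to half-log compound dilutions for 1 h at room temperature. cAMP was read by luminescent enzyme-fragment complementation (cAMP XS+) after overnight incubation; EC50 derived.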

mouse TGR5 receptor [2] = molecular target: T2, mouse TGR5 receptor; test: Mouse TGR5 HTRF cAMP production assay (HEK293-EBNA cells, Cisbio cAMP HiRange kit); details: HEK293-EBNA cells overexpressing mouse TGR5, HTRF cAMP assay
How it was run: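 cAMP accumulation was read by competitive HTRF after 1 h room-temperature compound treatment, with a further 1 h conjugate incubation. Cells were mouse TGR5-overexpressing HEK293-EBNA in serum-free DMEM plus 500 μM IBMX. Compounds ran as 12-point half-log series in duplicate, and EC50 values were reported.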

Compound: Cc1csc(-c2cc(N3CCC[C@H]3C(=O)NCCc3ccc(C#N)cc3)nc(C(F)(F)F)n2)c1 [Compound 171, (S)-N-(4-cyanophenethyl)-1-(6-(4-methylthiophen-2-yl)-2-(trifluoromethyl)pyrimidin-4-yl)pyrrolidine-2-carboxamide]
- EC50 (human TGR5 receptor): 100 to 999 nM
- EC50 (mouse TGR5 receptor [1]): 100 to 999 nM
- EC50 (mouse TGR5 receptor [2]): < 100 nM

Compound: N#Cc1ccc(CCNC(=O)[C@@H]2CCCN2c2cc(-c3cc4ccccc4s3)nc(C(F)(F)F)n2)cc1 [Compound 173, (S)-1-(6-(benzo[b]thiophen-2-yl)-2-(trifluoromethyl)pyrimidin-4-yl)-N-(4-cyanophenethyl)pyrrolidine-2-carboxamide]
- EC50 (human TGR5 receptor): 100 to 999 nM
- EC50 (mouse TGR5 receptor [1]): 100 to 999 nM
- EC50 (mouse TGR5 receptor [2]): 100 to 999 nM

Compound: COc1ccc(Oc2cc(N3CCC[C@H]3C(=O)NCCc3ccc(C#N)cc3)nc(C(F)(F)F)n2)cc1 [Compound 44, (S)-N-(4-cyanophenethyl)-1-(6-(4-methoxyphenoxy)-2-(trifluoromethyl)pyrimidin-4-yl)pyrrolidine-2-carboxamide]
- EC50 (human TGR5 receptor): 1000 to 30000 nM
- EC50 (mouse TGR5 receptor [1]): 100 to 999 nM

Compound: COc1ccc(-c2cc(N3CCC[C@H]3C(=O)NCCc3ccc(C#N)cc3)nc(C(F)(F)F)n2)cc1 [Compound 148, (S)-N-(4-cyanophenethyl)-1-(6-(4-methoxyphenyl)-2-(trifluoromethyl)pyrimidin-4-yl)pyrrolidine-2-carboxamide]
- EC50 (human TGR5 receptor): 100 to 999 nM
- EC50 (mouse TGR5 receptor [1]): < 100 nM

Compound: CN1CCC(Oc2cc(N3CCC[C@H]3C(=O)NCCc3ccc(C#N)cc3)nc(C(F)(F)F)n2)CC1 [Compound 39, (S)—N-(4-cyanophenethyl)-1-(6-((1-methylpiperidin-4-yl)oxy)-2-(trifluoromethyl)pyrimidin-4-yl)pyrrolidine-2-carboxamide]
- EC50 (human TGR5 receptor): 100 to 999 nM
- EC50 (mouse TGR5 receptor [1]): < 100 nM

Compound: N#Cc1ccc(CCNC(=O)[C@@H]2CCCN2c2cc(OC3CCNCC3)nc(C(F)(F)F)n2)cc1 [Compound 51, (S)-N-(4-cyanophenethyl)-1-(6-(piperidin-4-yloxy)-2-(trifluoromethyl)pyrimidin-4-yl)pyrrolidine-2-carboxamide]
- EC50 (human TGR5 receptor): 1000 to 30000 nM
- EC50 (mouse TGR5 receptor [1]): 100 to 999 nM

Compound: N#Cc1ccc(CCNC(=O)[C@@H]2CCCN2c2cc(-c3ccccn3)nc(C(F)(F)F)n2)cc1 [Compound 162, (S)-N-(4-cyanophenethyl)-1-(6-(pyridin-2-yl)-2-(trifluoromethyl)pyrimidin-4-yl)pyrrolidine-2-carboxamide]
- EC50 (human TGR5 receptor): 100 to 999 nM
- EC50 (mouse TGR5 receptor [1]): 100 to 999 nM

Compound: CC(C)(C)OC(=O)N1CCC(Nc2cc(N3CCC[C@H]3C(=O)NCCc3ccc(C#N)cc3)nc(C(F)(F)F)n2)CC1 [Compound 15]
- EC50 (human TGR5 receptor): 1000 to 30000 nM
- EC50 (mouse TGR5 receptor [1]): < 100 nM

Compound: O=C(NCCc1ccc(C(F)(F)F)cc1)[C@@H]1CCCN(c2cc(NCCO)nc(C(F)(F)F)n2)C1 [Compound 323, (R)-1-(6-((2-hydroxyethyl)amino)-2-(trifluoromethyl)pyrimidin-4-yl)-N-(4-(trifluoromethyl)phenethyl)piperidine-3-carboxamide]
- EC50 (human TGR5 receptor): 100 to 999 nM
- EC50 (mouse TGR5 receptor [1]): 100 to 999 nM

Compound: CS(=O)(=O)Nc1cccc(-c2cc(N3CCC[C@H]3C(=O)NCCc3ccc(C#N)cc3)nc(C(F)(F)F)n2)c1 [Compound 153, (S)-N-(4-cyanophenethyl)-1-(6-(3-(methylsulfonamido)phenyl)-2-(trifluoromethyl)pyrimidin-4-yl)pyrrolidine-2-carboxamide]
- EC50 (human TGR5 receptor): 1000 to 30000 nM
- EC50 (mouse TGR5 receptor [1]): 100 to 999 nM

Compound: N[C@@H]1CC(C(=O)NCCc2ccc(C(F)(F)F)cc2)N(c2cc(N3CCC(CO)CC3)nc(C(F)(F)F)n2)C1 (stereo partly drawn) [Compound 218, (4R)-4-amino-1-(6-(4-(hydroxymethyl)piperidin-1-yl)-2-(trifluoromethyl)pyrimidin-4-yl)-N-(4-(trifluoromethyl)phenethyl)pyrrolidine-2-carboxamide]
- EC50 (human TGR5 receptor): 1000 to 30000 nM
- EC50 (mouse TGR5 receptor [1]): 100 to 999 nM

Compound: O=C(NCCc1ccc(C(F)(F)F)cc1)[C@@H]1CCCN(c2cc(NCCN3CCOCC3)nc(C(F)(F)F)n2)C1 [Compound 325, (R)-1-(6-((2-morpholinoethyl)amino)-2-(trifluoromethyl)pyrimidin-4-yl)-N-(4-(trifluoromethyl)phenethyl)-piperidine-3-carboxamide]
- EC50 (human TGR5 receptor): 100 to 999 nM
- EC50 (mouse TGR5 receptor [1]): < 100 nM

Compound: N#Cc1ccc(CCNC(=O)[C@@H]2CCCN2c2cc(-c3ccsc3)nc(C(F)(F)F)n2)cc1 [Compound 158, (S)-N-(4-cyanophenethyl)-1-(6-(thiophen-3-yl)-2-(trifluoromethyl)pyrimidin-4-yl)pyrrolidine-2-carboxamide]
- EC50 (human TGR5 receptor): 100 to 999 nM
- EC50 (mouse TGR5 receptor [1]): < 100 nM

Compound: N#Cc1ccc(CCNC(=O)C2CCN2c2cc(OC3CCOCC3)nc(C(F)(F)F)n2)cc1 (centres unmarked) [Compound 244, N-(4-cyanophenethyl)-1-(6-((tetra-hydro-2H-pyran-4-yl)oxy)-2-(trifluoromethyl)pyrimidin-4-yl)azetidine-2-carboxamide]
- EC50 (human TGR5 receptor): 100 to 999 nM
- EC50 (mouse TGR5 receptor [1]): < 100 nM

Compound: Cc1ccc(-c2cc(N3CCC[C@H]3C(=O)NCCc3ccc(C#N)cc3)nc(C(F)(F)F)n2)s1 [Compound 170, (S)-N-(4-cyanophenethyl)-1-(6-(5-methylthiophen-2-yl)-2-(trifluoromethyl)pyrimidin-4-yl)pyrrolidine-2-carboxamide]
- EC50 (human TGR5 receptor): 100 to 999 nM
- EC50 (mouse TGR5 receptor [1]): 100 to 999 nM
- EC50 (mouse TGR5 receptor [2]): 100 to 999 nM

Compound: N#Cc1ccc(CCNC(=O)[C@@H]2CCCN2c2cc(-c3ccc(CN4CCOCC4)s3)nc(C(F)(F)F)n2)cc1 [Compound 168, (S)-N-(4-cyanophenethyl)-1-(6-(5-(morpholinomethyl)thiophen-2-yl)-2-(trifluoromethyl)pyrimidin-4-yl)pyrrolidine-2-carboxamide]
- EC50 (human TGR5 receptor): 1000 to 30000 nM
- EC50 (mouse TGR5 receptor [1]): 100 to 999 nM

Compound: Cc1noc(C)c1-c1cc(N2CCC[C@H]2C(=O)NCCc2ccc(C#N)cc2)nc(C(F)(F)F)n1 [Compound 156, (S)-N-(4-cyanophenethyl)-1-(6-(3,5-dimethylisoxazol-4-yl)-2-(trifluoromethyl)pyrimidin-4-yl)pyrrolidine-2-carboxamide]
- EC50 (human TGR5 receptor): 1000 to 30000 nM
- EC50 (mouse TGR5 receptor [1]): 1000 to 30000 nM

Compound: N#Cc1ccc(CCNC(=O)[C@@H]2CCCN2c2cc(-c3ccccc3)nc(C(F)(F)F)n2)cc1 [Compound 144, (S)-N-(4-cyanophenethyl)-1-(6-phenyl-2-(trifluoromethyl)pyrimidin-4-yl)pyrrolidine-2-carboxamide]
- EC50 (human TGR5 receptor): 100 to 999 nM
- EC50 (mouse TGR5 receptor [1]): 100 to 999 nM

Compound: N#Cc1ccc(CCNC(=O)[C@@H]2CCCN2c2cc(Nc3ccncc3)nc(C(F)(F)F)n2)cc1 [Compound 14]
- EC50 (human TGR5 receptor): 1000 to 30000 nM
- EC50 (mouse TGR5 receptor [1]): 1000 to 30000 nM
